Test results from patent publication US20020173515A1, “Antiproliferative substituted 5-thiapyrimidinone and 5-selenopyrimidinone compounds” (priority 1992, published 2002).

How the values were obtained:
L1210 murine leukemia = experiment: Cellular growth inhibition, L1210 (MTT-tetrazolium reduction); format: cell-based; conditions: Mus musculus, L1210, 72 h; 3 days continuous exposure; read-out: Cell Line, IC50 L1210
Method: (§1) Cellular growth in the presence of the compounds according to the present invention was assessed using two cell lines: the L1210 murine leukemia (ATCC CCL 219) and CCRF-CEM, a human lymphoblastic leukemia line of T-cell origin (ATCC CCL 119). Both lines were maintained in RPMI 1640 medium containing 5% heat-inactivated fetal bovine serum without antibiotics.
(§2) Growth was measured over 3 days (L1210) or 5 days (CCRF-CEM) of continuous exposure to varying concentrations of each test compound added 4 hours after initial cell plating by the MITT-tetrazolium reduction assay of Mosmann T. J. (Immunol. meth. 65, 55-63 (1983)), modified according to Alley et al. (Cancer Res. 48, 589-601 (1988)). Water insoluble derivatives were dissolved in DMSO and diluted to a final concentration of 0.5% solvent in cell cultures.

[1] = tested on: CCRF-CEM, a human lymphoblastic leukemia line of T-cell origin; experiment: Cellular growth inhibition, CCRF-CEM (MTT-tetrazolium reduction); format: cell-based; conditions: 120 h, 5 days continuous exposure
Method: as §1, §2

L1210-C192 = experiment: Cellular growth inhibition, L1210-C192; format: cell-based; conditions: read-out: Cell Line, IC50 L1210-C192
[2] = biological target: T1, GARFT domain of the human enzyme (Homo sapiens, UniProt P22102); experiment: GARFT inhibition constants, Method I (Cleland; spectrophotometric assay of Young et al.); format: biochemical; conditions: Method I (Examples 2-5 and 10); 22° C, 20 mM Hepes pH 7.5, 20 μM GAR, variable 10-formyl-5,8-dideazafolate
T1 construct: The GARFT domain of the human enzyme was used
T1 sequence (P22102 810-1010 limits assumed): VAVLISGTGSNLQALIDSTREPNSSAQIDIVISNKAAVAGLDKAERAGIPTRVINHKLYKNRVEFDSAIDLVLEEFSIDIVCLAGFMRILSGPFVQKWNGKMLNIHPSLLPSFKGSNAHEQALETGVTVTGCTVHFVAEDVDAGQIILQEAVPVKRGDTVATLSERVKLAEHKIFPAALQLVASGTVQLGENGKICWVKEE
Method: Determination of Inhibition Constants for GARFT
The GARFT domain of the human enzyme was used. […] The assay mix contained 20 mM Hepes pH 7.5, 20 μM GAR, and variable amounts of 10-formyl-5,8-dideazafolate and inhibitor. For each inhibitor five concentrations were used ranging from 0 to approximately 3Ki. The data were plotted as the […] versus the reciprocal of the 10-formyl-5,8-dideaza-folate concentration. The inhibition constants were measured from a replot of the slopes of these lines obtained for each concentration of inhibitor versus the inhibitor concentration.

[3] = biological target: T2, partially purified AICARFT from cultured CEM cells (Homo sapiens, UniProt P31939); experiment: AICARFT inhibition constants (modified Black et al. assay); format: biochemical; conditions: 37° C, 50 mM Tris-Cl pH 7.4, 50 μM racemic FTHF
T2 construct: partially purified AICARFT from cultured CEM cells; endogenous in cells; host or cells: CEM cells (partially purified enzyme preparation)
T2 sequence (P31939 whole entry): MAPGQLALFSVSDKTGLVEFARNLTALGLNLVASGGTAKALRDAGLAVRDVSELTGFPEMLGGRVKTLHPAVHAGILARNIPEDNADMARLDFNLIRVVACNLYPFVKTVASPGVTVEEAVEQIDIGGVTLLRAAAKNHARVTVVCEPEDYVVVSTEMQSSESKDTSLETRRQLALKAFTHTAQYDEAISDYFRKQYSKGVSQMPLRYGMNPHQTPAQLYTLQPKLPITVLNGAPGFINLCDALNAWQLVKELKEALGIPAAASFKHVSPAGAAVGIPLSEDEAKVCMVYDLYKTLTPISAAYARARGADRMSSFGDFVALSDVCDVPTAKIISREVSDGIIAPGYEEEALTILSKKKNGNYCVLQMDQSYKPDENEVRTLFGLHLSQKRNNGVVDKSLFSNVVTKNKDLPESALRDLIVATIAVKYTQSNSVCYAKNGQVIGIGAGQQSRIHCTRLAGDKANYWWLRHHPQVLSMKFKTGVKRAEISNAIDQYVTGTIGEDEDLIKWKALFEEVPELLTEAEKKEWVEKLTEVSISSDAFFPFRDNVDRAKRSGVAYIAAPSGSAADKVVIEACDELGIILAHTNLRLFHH
Method: Determination of Inhibition Constants for AICARFT
The assay method of Black et al. (Anal Biochem 90, 397-401 (1978)) was modified and used as described below. Buffers were degassed under vacuum prior to the preparation of substrate solutions and degassed buffer was used in the reaction mixtures. Reaction mixtures contained partially purified AICARFT from cultured CEM cells, inhibitor, 100 μM […] (5-aminoimidazole-4-carboxamide-ribonucleotide), 50 μM of a racemic mixture of N10-formyl-tetrahydrofolate (FTHF), 25 mM KCl, 50 mM 2-mercaptoethanol and 50 mM Tris-Cl pH 7.4. The reaction was initiated with the addition of the enzyme solution to a final concentration of 0.1 mg/mL and the reaction followed by monitoring the increase in absorbance at 298 nm at 37° C. (ε298=28 mM cm^−1).
AICARFT inhibition constants (Ki) were determined from the dependence of the steady-state catalytic rate upon inhibitor and substrate concentration. The type of inhibition observed and the determination of Ki was performed as described above for inhibitors of GARFT with the appropriate substrates and the AICARFT assay. Treatment of experimental data was essentially the same.

[4] = biological target: T3, catalytic domain of the human GARFT (Homo sapiens, UniProt P22102); experiment: GARFT inhibition constants, Method II (modified Young et al. assay); format: biochemical; conditions: Method II (Examples 6, 7, 8 and 9); 20° C, 50 mM Tris-Cl pH 7.5, 20 μM GAR, 10 or 20 μM FDDF
T3 construct: Reaction mixtures contained the catalytic domain of the human GARFT
T3 sequence (P22102 810-1010 limits assumed): T1 sequence (P22102 810-1010 limits assumed)
Method: Reaction mixtures contained the catalytic domain of the human GARFT, inhibitor, 20 μM glycinamide ribonucleotide (GAR), 10 or 20 μM N^10-formyl-5,8-dideazafolate (FDDF), and 50 mM Tris-Cl at pH 7.5.
GARFT constants (Ki) were determined from the dependence of the steady-state catalytic rate upon inhibitor and substrate concentration. […] The michaelis constant Km, was determined independently by the dependence of the catalytic rate upon FDDF concentration. Data for both the Km and Ki determinations were fitted by non-linear methods to the Michaelis equation or the Michaelis equation for competitive inhibition as appropriate.

| Compound | IC50 (L1210 murine leukemia) | IC50 [1] | IC50 (L1210-C192) | Ki [2] | melting point | Ki [3] | Ki [4] |
| --- | --- | --- | --- | --- | --- | --- | --- |
| Nc1nc(N)c(SCC2CCc3cc(C(=O)N[C@@H](CCC(=O)O)C(=O)O)sc3C2)c(=O)[nH]1 (stereo partly drawn) [Example 8, N-(6-[([2,6-diamino-4(3H)oxopyrimidin-5-yl]-thio)methyl]-4,5,6,7-tetrahydrobenzothieno-2-yl)-S-glutamic Acid] | 10 nM | 8 nM | 9000 nM | – | – | – | – |
| Nc1nc(N)c(SCCc2ccc(C(=O)N[C@@H](CCC(=O)O)C(=O)O)s2)c(=O)[nH]1 [Example 9, N-(5-[2-([2,6-Diamino-4(3H)-oxopyrimidin-5-yl]thio)ethyl]thieno-2-yl)-L-glutamic Acid] | 250 nM | 620 nM | 22000 nM | – | 228 to 230 °C (dec.) | 35000 nM | 2000 nM |
| Nc1nc(N)c(SCCNc2ccc(C(=O)N[C@@H](CCC(=O)O)C(=O)O)cc2)c(=O)[nH]1 [Example 5, N-[4-(N-[2-([2,6-diamino-4(3H)-oxopyrimidin-5-yl]thio)ethyl]amino)benzoyl]-S-glutamic Acid] | 90 nM | 80 nM | 4200 nM | 88 nM | – | – | – |
| Cc1cc(C(=O)N[C@@H](CCC(=O)O)C(=O)O)sc1CCCSc1c(N)nc(N)[nH]c1=O [Example 7] | 89 nM | 99 nM | 28000 nM | – | – | – | – |

Further compounds by falling IC50 (L1210 murine leukemia), results first:

| IC50 (L1210 murine leukemia) | IC50 [1] | IC50 (L1210-C192) | Ki [2] | melting point | Ki [3] | Ki [4] | Compound |
| --- | --- | --- | --- | --- | --- | --- | --- |
| 1500 nM | 1200 nM | 12000 nM | 30000 nM | 177 to 181 °C | 60000 nM | – | Nc1nc(N)c(SCCc2ccc(C(=O)N[C@@H](CCC(=O)O)C(=O)O)cc2)c(=O)[nH]1 [Example 10] |
| 120 nM | 68 nM | > 25000 nM | – | – | – | – | Cc1cc(CCCSc2c(N)nc(N)[nH]c2=O)sc1C(=O)N[C@@H](CCC(=O)O)C(=O)O [Example 6] |
| 110 nM | 130 nM | 10000 nM | 110 nM | – | – | – | Nc1nc(N)c(SCCSc2ccc(C(=O)N[C@@H](CCC(=O)O)C(=O)O)cc2)c(=O)[nH]1 [Example 4, N-[(4-[2-([2,6-diamino-4(3H)-oxopyrimidin-5-yl]thio)ethyl]thio)benzoyl]-S-glutamic Acid] |
| 79 nM | 65 nM | 5000 nM | – | – | – | – | Nc1nc(N)c(SCCCc2ccc(C(=O)N[C@@H](CCC(=O)O)C(=O)O)cc2)c(=O)[nH]1 [Example 2, N-(4-(3-[2,6-diamino-4(3H)-oxopyrimidin-5-yl)thio]propyl)benzoyl-(S)-glutamic Acid] |
| 40 nM | 49 nM | 10500 nM | 35 nM | – | – | – | Nc1nc(N)c(SCCCc2ccc(C(=O)N[C@@H](CCC(=O)O)C(=O)O)s2)c(=O)[nH]1 [Example 3, N-[2-(5-[3-([2,6-diamino-4(3H)-oxopyrimidin-5-yl]thio)propyl]-thienoyl)]-(S)-glutamic Acid] |
